Laboratory results taken from patent US9649305B2, “PFKFB3 inhibitor and methods of use as an anti-cancer therapeutic” (ADVANCED CANCER THERAPEUTICS, LLC, priority 2012, dated 2017).

Tests used:
Assay in all cases: Cancer cell proliferation, MTT assay
Format in all cases: cell-based
HT29 = conditions: Homo sapiens, HT-29, 48 hours
Procedure: (§1) The ability of PFK-158 to kill or inhibit the proliferation of cancer cells was measured using either the MTT assay, the alamarBlue® assay (Invitrogen, Grand Island, N.Y.), or the CellTiter Glo™ assay (Promega, Madison, Wis.) using 48 or 72 hours exposure.
(§2) Cells of the desired tumor cell line were plated at 2×10^5 cells/ml in 96 well plates. Twice the indicated concentrations of the compounds of the invention were added to cells the following day in an equal volume of media. 72 hours later, cells were lysed and subjected to ATP determination using the CellTiter-Glo™ Luminescent Cell Viability Assay kit. Experiments were performed in triplicate. When using the MTT assay or the alamarBlue® assay, the experimental conditions are essentially similar; at the end of the incubation period, 20 microliters of the MTT solution is added per well and the samples are incubated for an additional four hours, rinsed, and absorbance at 570 nm was measured. Results for the inhibition of cell proliferation are reported as the IC50 (the concentration resulting in 50% inhibition of proliferation of the cell population) and are listed in Table 5 below. Cell lines include lung, colon, prostate, breast, ovarian, and pancreatic cancer lines.

PC-3 = conditions: Homo sapiens; PC-3, MTT assay, 48 hours
Procedure: as §1, §2

BT474 = conditions: Homo sapiens, BT-474, 48 hours
Procedure: as §1, §2

MiaPaCa-2 = conditions: Homo sapiens, MIA PaCa-2; MiaPaCa-2, MTT assay, 48 hours
Procedure: as §1, §2

HCT116 = conditions: Homo sapiens, HCT-116, 48 hours
Procedure: as §1, §2

A549 = conditions: Homo sapiens, 48 hours
Procedure: as §1, §2

O=C(/C=C/c1ccc2ccc(C(F)(F)F)cc2n1)c1ccncc1 [PFK-158, (E)-1-(pyridyn-4-yl)-3-(7-(trifluoromethyl)quinolin-2-yl)-prop-2-en-1-one]
IC50 (HT29): 4.13 µM
IC50 (PC-3): 1.18 µM
IC50 (BT474): 1.95 µM
IC50 (MiaPaCa-2): 3.35 µM
IC50 (HCT116): 3.4 µM
IC50 (A549): 8.65 µM
